From patent US5714494A, “Xanthines in the 7th position with a benzyl acetic acid moiety” (Bayer Aktiengesellschaft, priority 1995, dated 1998)

Assays:
[1] = tested on: ApoB-100-associated lipoproteins; experiment: Inhibition of the release of ApoB-100-associated lipoproteins from HepG2 cells (immunoassay for human LDL); type: cell-based; conditions: light absorption 450 nm vs solvent control
Experimental: The test for detecting inhibition of the release of ApoB-100-associated lipoproteins from liver cells was carried out in vitro using cultured liver cells, preferably using cells of the human line HepG2. These cells are grown under standard conditions in medium for the culture of eucaryotic cells, preferably in RPMI 1640 using 10% foetal calf serum. HepG2 cells synthesize and secrete into the culture supernatant ApoB-100-associated lipoprotein particles which in principle are synthesized in a similar manner to the VLDL and LDL particles which are to be found in the plasma.
These particles can be detected using an immunoassay for human LDL. This immunoassay is carried out using antibodies which have been induced in the rabbit against human LDL under standard conditions. The anti-LDL antibodies (rabbit anti-LDL-Ab) were purified by affinity chromatography on an immunosorbent using human LDL. These purified rabbit anti-LDL Ab are adsorbed on the surface of plastic. Expediently, this adsorption is carried out on the plastic surface of microtitre plates having 96 wells, preferably on MaxiSorp plates. If ApoB-100-associated particles are present in the supernatant of Hep-G2 cells, these can bind to the insolubilized rabbit anti-LDL Ab, and an immune complex is formed which is bound to the plastic surface. Unbound proteins are removed by washing. The immune complex located on the plastic surface is detected using monoclonal antibodies which have been induced against human LDL according to standard conditions and purified. These antibodies were conjugated with the enzyme peroxidase. Peroxidase converts the colourless substrate TMB into a coloured product in the presence of H2 O2. After acidification of the reaction mixture using H2 SO4, the specific light absorption at 450 mn is determined, which is a measure of the amount of ApoB-100-associated particles which have been secreted into the culture supernatant by the HepG2 cells.
The IC50 value indicates at which substance concentration the light absorption is inhibited by 50% in comparison with the control (solvent control without substance).

[2] = tested on: intestinal triglyceride absorption; experiment: Inhibition of intestinal triglyceride absorption in vivo (rats); parameters: species or system male Wistar rats; conditions: po; for Absorption ED50 or % inhibition: 2 h
Experimental: The substances which are to be investigated for their triglyceride absorption-inhibiting action in vivo are administered orally to male Wistar rats having a body weight of between 170 and 230 g. For this purpose, the animals are divided into groups of 6 animals 18 hours before administration of the substance and the feed is then withdrawn from them. Drinking water is available to the animals ad libitum. The animals of the control groups receive an aqueous tragacanth suspension or a tragacanth suspension which contains olive oil. The tragacanth-olive oil suspension is prepared using an Ultra-Turrax. The substances to be investigated are suspended directly before substance administration in a corresponding tragacanth-olive oil suspension, also using an Ultra-Turrax.
Before stomach tube application, blood is taken from each rat by puncture of the retroorbital venous plexus to determine the basal serum triglyceride content. The tragacanth suspension, the tragacanth-olive oil suspensions without substance (control animals) and the substances suspended in a corresponding tragacanth-olive oil suspension are then administered to the fasting animals using a stomach tube. Further taking of blood for the determination of the postprandial serum triglyceride rise is carried out, as a rule, 1,2 and 3 hours after stomach tube application.
The blood samples are centrifuged and, after recovering the serum, the triglycerides are determined photometrically using an EPOS analyzer 5060 (Eppendorf Geratebau, Netheler & Hinz GmbH, Hamburg). The triglycerides are determined by fully enzymatic means using a commercially available UV test.
The postprandial serum triglyceride increase is determined by subtraction of the triglyceride preliminary value of each animal from its corresponding postprandial triglyceride concentrations (1,2 and 3 hours after administration).
The differences (in mmol/l) at each time 1, 2 and 3 hours) are averaged in the groups, and the average values of the serum triglyceride increase (ΔTG) of the substance-treated animals are compared with the animals which only received the tragacanth-oil suspension.
Likewise, the serum triglyceride course of the control animals which received only tragacanth is calculated. The substance effect at each time (1, 2 or 3 hours) is determined as follows and given in Δ% of the oil-loaded control. [formula]
Effect of 10 mg of test substance/kg of body weight p.o. on the triglyceride increase (Δ%) 2 h after a triglyceride loading in the serum of fasting rats. The serum triglyceride increase of fat-loaded control animals based on the serum triglyceride level of tragacanth control animals corresponds to 100%. n=6 animals per group.
Statistical assessment was carried out using student3 s t test after prior checking of the variances for homogeneity.

VLDL secretion = experiment: Inhibition of VLDL secretion in vivo (rat) (Triton rat); conditions: 3 mg/kg p.o., (n.s.) for 112, 114, 117, 154, 175, 176, 227
Experimental: The action of the test substances on VLDL secretion is also investigated in the rat. To do this, 500 mg/kg of body weight (2.5 ml/kg) of Triton WR-1339, dissolved in physiological saline solution, are administered to rats intravenously in the tail vein. Triton WR-1339 inhibits lipoprotein lipase and thus leads through inhibition of VLDL catabolism to an increase in the triglyceride and cholesterol level. These increases can be used as a measure of the VLDL secretion rate.
Blood is taken from the animals before and one and two hours after administration of the detergent by puncture of the retroorbital venous plexus. The blood is incubated at room temperature for 1 h for clotting and the serum is recovered by centrifugation at 10,000 g for 20 s. The triglycerides are then determined photometrically at a wavelength of 540 nm by means of a commercially available coupled enzyme test (Sigma Diagnostics®, No. 339). Measurement is carried out with the aid of a likewise coupled enzyme test (Boehringer Mannheim®, No. 1442350) at a wavelength of 546 nm. Samples with triglyceride or cholesterol concentrations which exceed the measuring range of the methods are diluted with physiological saline solution. The respective serum concentrations are determined with the aid of standard series measured in parallel. Test substances are administered orally, intravenously or subcutaneously immediately after the Triton injection.

[3] = Homo sapiens, HepG2, HepG2 cells

Cn1c(=O)c2c(nc(Cc3ccccc3)n2Cc2ccc(C(C(=O)N[C@@H](CO)c3ccccc3)C3CCCCCC3)cc2)n(C)c1=O (some centres unmarked) [Example 174]
IC50 [1, 3]: 5 nM | Absorption ED50 or % inhibition [2]: < 2 mg/kg

Cc1cccc(Cc2nc3c(c(=O)n(C)c(=O)n3C)n2Cc2ccc(C(C(=O)N[C@@H](CO)c3ccccc3)C3CCCC3)cc2)c1 (some centres unmarked) [Example 179]
IC50 [1, 3]: 5 nM | Absorption ED50 or % inhibition [2]: > 3 mg/kg

Cc1ccc(Cc2nc3c(c(=O)n(C)c(=O)n3C)n2Cc2ccc(C(C(=O)N[C@@H](CO)c3ccccc3)C3CCCC3)cc2)cc1 (some centres unmarked) [Example 182]
IC50 [1, 3]: 12 nM | Absorption ED50 or % inhibition [2]: 2 mg/kg

CN(C)c1ccc(-c2nc3c(c(=O)n(C)c(=O)n3C)n2Cc2ccc(C(C(=O)N[C@@H](CO)c3ccccc3)C3CCCC3)cc2)cc1 (some centres unmarked) [Example 149]
IC50 [1, 3]: 9 nM | Absorption ED50 or % inhibition [2]: > 3 mg/kg

COc1ccccc1Cc1nc2c(c(=O)n(C)c(=O)n2C)n1Cc1ccc(C(C(=O)N[C@@H](CO)c2ccccc2)C2CCCC2)cc1 (some centres unmarked) [Example 197]
IC50 [1, 3]: 43 nM | Absorption ED50 or % inhibition [2]: 3 mg/kg

Cc1cccc(-c2nc3c(c(=O)n(C)c(=O)n3C)n2Cc2ccc(C(C(=O)N[C@@H](CO)c3ccccc3)C3CCCC3)cc2)c1 (some centres unmarked) [Example 133]
IC50 [1, 3]: 5 nM | Absorption ED50 or % inhibition [2]: 2 mg/kg

Cn1c(=O)c2c(nc(-c3ccc(C(F)(F)F)cc3)n2Cc2ccc(C(C(=O)N[C@@H](CO)c3ccccc3)C3CCCC3)cc2)n(C)c1=O (some centres unmarked) [Example 143]
IC50 [1, 3]: 11 nM | Absorption ED50 or % inhibition [2]: > 3 mg/kg

Cn1c(=O)c2c(nc(Cc3ccccc3)n2Cc2ccc(C(C(=O)N[C@@H](CO)c3ccccc3)C3CCCCCC3)cc2)n(C)c1=O (single isomer, unassigned) [Example 176]
Triton rat % TG inhibition (p.o.) 2 h after substance (VLDL secretion): 6.2% | IC50 ([1]; HepG2 cells): 19 nM

COc1ccc(-c2nc3c(c(=O)n(C)c(=O)n3C)n2Cc2ccc(C(C(=O)N[C@@H](CO)c3ccccc3)C3CCCC3)cc2)cc1 (some centres unmarked) [Example 146]
IC50 [1, 3]: 6 nM | Absorption ED50 or % inhibition [2]: > 3 mg/kg

Cn1c(=O)c2c(nc(CC3CCCCC3)n2Cc2ccc(C(C(=O)N[C@@H](CO)c3ccccc3)C3CCCC3)cc2)n(C)c1=O (some centres unmarked) [Example 123]
IC50 [1, 3]: 8 nM | ED50 ([2]; Rattus norvegicus, serum triglyceride increase 2 h after triglyceride loading, fasting rats, read-out: Absorption ED50 or % inhibition): 2 mg/kg

Cc1ccccc1Cc1nc2c(c(=O)n(C)c(=O)n2C)n1Cc1ccc(C(C(=O)N[C@@H](CO)c2ccccc2)C2CCCC2)cc1 (some centres unmarked) [Example 178]
IC50 [1, 3]: 64 nM | Absorption ED50 or % inhibition [2]: 3 mg/kg

Cn1c(=O)c2c(nc(-c3ccccn3)n2Cc2ccc(C(C(=O)N[C@@H](CO)c3ccccc3)C3CCCC3)cc2)n(C)c1=O (some centres unmarked) [Example 151]
IC50 [1, 3]: 34 nM | Absorption ED50 or % inhibition [2]: 6 mg/kg

Cn1c(=O)c2c(nc(Cc3cccc(Cl)c3)n2Cc2ccc(C(C(=O)N[C@@H](CO)c3ccccc3)C3CCCC3)cc2)n(C)c1=O (some centres unmarked) [Example 191]
IC50 [1, 3]: 14 nM | Absorption ED50 or % inhibition [2]: > 3 mg/kg

Cn1c(=O)c2c(nc(C=Cc3ccccc3)n2Cc2ccc(C(C(=O)N[C@@H](CO)c3ccccc3)C3CCCC3)cc2)n(C)c1=O (some centres unmarked) [Example 167]
IC50 [1, 3]: 19 nM | Absorption ED50 or % inhibition [2]: > 2 mg/kg

Cc1ccc(-c2nc3c(c(=O)n(C)c(=S)n3C)n2Cc2ccc(C(C(=O)N[C@@H](CO)c3ccccc3)C3CCCC3)cc2)cc1 (some centres unmarked) [Example 226]
IC50 [1, 3]: 11 nM

COc1ccc(Cc2nc3c(c(=O)n(C)c(=O)n3C)n2Cc2ccc(C(C(=O)N[C@@H](CO)c3ccccc3)C3CCCC3)cc2)cc1 (single isomer, unassigned) [Example 202]
IC50 ([1]; HepG2 cells): 9 nM

Cn1c(=O)c2c(ncn2Cc2ccc(C(C(=O)N[C@@H](CO)c3ccccc3)C3CCCC3)cc2)n(C)c1=O (some centres unmarked) [Example 113]
IC50 [1, 3]: 58 nM

Cn1c(=O)c2c(nc(Cc3ccc(F)cc3)n2Cc2ccc(C(C(=O)N[C@@H](CO)c3ccccc3)C3CCCC3)cc2)n(C)c1=O (single isomer, unassigned) [Example 195]
IC50 ([1]; HepG2 cells): 5 nM

Cn1c(=O)c2c(nc(Cc3cccc(Cl)c3)n2Cc2ccc(C(C(=O)N[C@@H](CO)c3ccccc3)C3CCCC3)cc2)n(C)c1=O (single isomer, unassigned) [Example 192]
IC50 ([1]; HepG2 cells): 8 nM

Cn1c(=O)c2c(nc(-c3ccc(Cl)cc3)n2Cc2ccc(C(C(=O)N[C@@H](CO)c3ccccc3)C3CCCC3)cc2)n(C)c1=O (some centres unmarked) [Example 140]
IC50 [1, 3]: 10 nM | Absorption ED50 or % inhibition [2]: > 3 mg/kg

Cc1nc2c(c(=O)n(C)c(=O)n2C)n1Cc1ccc(C(C(=O)N[C@@H](CO)c2ccccc2)C2CCCC2)cc1 (some centres unmarked) [Example 119]
IC50 [1, 3]: 11 nM

COc1ccc(Cc2nc3c(c(=O)n(C)c(=O)n3C)n2Cc2ccc(C(C(=O)N[C@@H](CO)c3ccccc3)C3CCCC3)cc2)cc1 (some centres unmarked) [Example 201]
IC50 [1, 3]: 11 nM | Absorption ED50 or % inhibition [2]: > 3 mg/kg

Cn1c(=O)c2c(nc(-c3cc(Br)cs3)n2Cc2ccc(C(C(=O)N[C@@H](CO)c3ccccc3)C3CCCC3)cc2)n(C)c1=O (some centres unmarked) [Example 164]
IC50 [1, 3]: 12 nM

Cc1ccsc1-c1nc2c(c(=O)n(C)c(=O)n2C)n1Cc1ccc(C(C(=O)N[C@@H](CO)c2ccccc2)C2CCCC2)cc1 (some centres unmarked) [Example 160]
IC50 [1, 3]: 5 nM | Absorption ED50 or % inhibition [2]: 3 mg/kg

Cn1c(=O)c2c(nc(-c3ccsc3)n2Cc2ccc(C(C(=O)N[C@@H](CO)c3ccccc3)C3CCCC3)cc2)n(C)c1=O (single isomer, unassigned) [Example 156]
IC50 ([1]; HepG2 cells): 25 nM

COc1ccc(Cc2nc3c(c(=O)n(C)c(=O)n3C)n2Cc2ccc(C(C(=O)N[C@@H](CO)c3ccccc3)C3CCCC3)cc2)cc1 (single isomer, unassigned) [Example 203]
IC50 ([1]; HepG2 cells): 63 nM

Cn1c(=O)c2c(nc(-c3ccc(-c4ccccc4)cc3)n2Cc2ccc(C(C(=O)N[C@@H](CO)c3ccccc3)C3CCCC3)cc2)n(C)c1=O (some centres unmarked) [Example 139]
IC50 [1, 3]: 90 nM
